The subject of one series is B. subtilis-GFP. Put plainly: Antibacterial activity on GFP producing Gram-positive bacteria (fluorimetry). Format: cell-based, Bacillus subtilis. The conditions noted are these: GFP fluorescence, 1–30 µM tested, mean ± SD. Here is the method:
(§1) Finally, the biological activity of the synthesized 1,2,3-triazol-5-yl-phosphonates (8, 11–26) was investigated. On the one hand, the antibacterial activity of the compounds was tested on GFP producing Gram-positive (Bacillus subtilis) and Gram-negative (Escherichia coli) bacterial cells. The GFP producing bacteria are an effective tool for screening for antibacterial activity since GFP signal measured via fluorimetry is proportional to the number of bacterial cells. Active compounds would kill bacterial cells, which results in the decrease in GFP fluorescence signal, therefore it is suitable for evaluating the antimicrobial effect of different agents. On the other hand, in vitro cytotoxicity assessments were performed on three different cell lines, such as human lung adenocarcinoma (A549), mouse fibroblast (NIH/3T3) as healthy cell line and human promyelocytic leukemia (HL-60). Table 3 contains the determined IC50 values in antimicrobial and cytotoxicity assays. According to the results, only modest antibacterial activity was detected against the more sensitive Bacillus subtilis strain.
(§2) All reagents were purchased from Sigma-Aldrich (Hungary, Budapest). E. coli-GFP and B. subtilis-GFP bacteria were grown in Lysogeny Broth (Luria-Bertani broth, LB, 10 g tryptone, 5 g yeast extract, 10 g/L NaCl, pH 7.0) medium overnight (ON) at 37 °C in an incubator with continuous shaking. The ON bacterial culture was diluted (E. coli-GFP: 1:10000, B. subtilis-GFP: 1:1000) in LB medium containing 10 µg/mL ampicillin. Two hundred microliters of diluted E. coli suspension per well were transferred to 96-well plates and different agents were added in the appropriate concentration, then incubated in a shaker (600 rpm) for 3 h at 37 °C. Test compounds were dissolved in 3-fold amounts of dimethyl sulfoxide (DMSO). […] For induction of the GFP expression IPTG (0.1 mM final concentration) was added to each well and incubated for 3 h at 37 °C.
(§3) The following incubation samples were centrifuged at 2750 rpm at room temperature (RT) for 5 min and washed twice with 200 µL PBS, with a centrifugation step between the two washes. After a third centrifugation step, the bacterial cells were suspended in 100 µL PBS. The number of bacteria was estimated according to the fluorimetric measurements. The fluorescence of the bacterial cells was measured by the Victor™ 1420 Multilabel Counter (Perkin Elmer, Waltham, MA, USA) at 485/535 nm for 1 sec per well controlled by Wallac 1420 Manager software. Each treatment was repeated in at least 2 wells per plate during the experiments. Percentage fluorescence intensity based on the quantity of E. coli-GFP cells was calculated using untreated control values as 100%. Error was represented by standard deviation (SD).

For a further series, the system named is E. coli-GFP. Put plainly: Antibacterial activity on GFP producing Gram-negative bacteria (fluorimetry). The class given is cell-based, Escherichia coli. The conditions noted are these: GFP fluorescence, 1–30 µM tested, mean ± SD. Here is the method:
as §1, §2, §3

Series [1] in a line: in vitro. The conditions noted are these: human.
Procedure: (§4) Cells were purchased from the American Type Culture Collection (ATCC, Manassas, VA, USA). Human lung adenocarcinoma A549 cells were maintained in Dulbecco's Modified Eagle Medium (DMEM), while mouse fibroblast NIH/3T3 and human promyelocytic leukemia HL-60 cells were maintained in Roswell Park Memorial Institute 1640 medium (RPMI-1640) containing 10% FCS. Media were supplemented with 2 mM GlutaMAX, 100 U/mL penicillin, and 100 µg/mL streptomycin (Life Technologies, Carlsbad, California, USA). Cell cultures were maintained at 37 °C in a humidified incubator in an atmosphere of 5% CO2 (Sanyo, Japan).
(§5) Cytotoxicity of the synthesized molecules was determined on A549, NIH/3T3 and HL-60 cells using the fluorescent Resazurin assay as described previously [46].
(§6) Briefly, cells (A549 and NIH/3T3: 6000, HL-60: 120.000 cells/well) were seeded into 96-well plates (Corning Life Sciences) in media and incubated overnight. Test compounds were dissolved in three-fold amounts of dimethyl sulfoxide (DMSO). Cells were treated with an increasing concentration of test compounds (1–30 µM). […] Cell viability was determined after 72 h incubation. Resazurin reagent (Sigma-Aldrich) was added at a final concentration of 25 µg/mL. After a 2 h incubation at 37 °C in 5% CO2, fluorescence (530 nm excitation/580 nm emission) was recorded on a multimode microplate reader (Cytofluor4000, PerSeptive Biosytems). Viability was calculated with relation to untreated control cells and blank wells containing media without cells. […] A Student’s t test was performed for individual test compound concentrations with relation to untreated control cell viability values.
Series [2] is described as follows: in vitro. The conditions noted are these: mouse.
Procedure: as §4, §5, §6
Series [3] in a line: In vitro cytotoxicity, fluorescent Resazurin assay. The conditions noted are these: human, HL-60 cells (human promyelocytic leukemia), In Vitro Cytotoxicity (IC50, µM) HL-60, 72 h incubation, 1–30 µM tested, mean ± SD.
Procedure: as §4, §5, §6
Series [4] is described as follows: in vitro. The conditions noted are these: human, In Vitro Cytotoxicity (IC50, µM) HL-60, 72 h incubation, 1–30 µM tested, mean ± SD.
Procedure: as §4, §5, §6
The test system of series [5] is HL-60 cells (human promyelocytic leukemia). Put plainly: In vitro cytotoxicity, fluorescent Resazurin assay. The conditions noted are these: read-out: In Vitro Cytotoxicity (IC50, µM) HL-60; 72 h incubation, 1–30 µM tested, mean ± SD.
Procedure: as §4, §5, §6
Series [6] concerns A549 cells (human lung adenocarcinoma).
Procedure: as §4, §5, §6
Series [7] deals with NIH/3T3 cells (mouse fibroblast).
Procedure: as §4, §5, §6
[8] abbreviates: A549 cells (human lung adenocarcinoma).
Setting [9] is: NIH/3T3 cells (mouse fibroblast).

A value given as a limit tells only on which side of the number the result lay.

For the compound `CC(C)OP(=O)(OC(C)C)c1c(-c2ccccc2)nnn1Cc1ccccc1` [Compound 14, Diisopropyl (1-benzyl-4-phenyl-1,2,3-triazol-5-yl)phosphonate], the IC50 with B. subtilis-GFP (Bacillus subtilis) and in the series with E. coli-GFP (Escherichia coli) was > 30 µM each time. Moreover, the IC50 at 72 h (in the series “in vitro [1]” (setting [8]); in “in vitro [2]” (setting [9]); in series [3]) was > 30 µM in each case.

In the case of `COP(=O)(OC)c1c(-c2ccccc2)nnn1Cc1ccc(C)cc1` [Compound 16, Dimethyl [1-(4-methylbenzyl)-4-phenyl-1,2,3-triazol-5-yl]phosphonate], the IC50 was > 30 µM in the series on B. subtilis-GFP (Bacillus subtilis), > 30 µM with E. coli-GFP (Escherichia coli) and 11 ± 1.2 µM in series [5]. Also, the IC50 at 72 h in the series “in vitro [1]” was > 30 µM; in “in vitro [2]” it was 19.8 ± 1.2 µM; in the series “in vitro [4]” it was ~10 µM.

For the compound `CCOP(=O)(OCC)c1c(-c2ccccc2)nnn1Cc1ccccc1` [Compound 12, Diethyl (1-benzyl-4-phenyl-1,2,3-triazol-5-yl)phosphonate], the IC50 with B. subtilis-GFP (Bacillus subtilis) and in the series with E. coli-GFP (Escherichia coli) was > 30 µM in each case. Moreover, the IC50 at 72 h in “in vitro [1]”, in the series “in vitro [2]” and in “in vitro [4]” was > 30 µM throughout.

Turning to `CCOP(=O)(OCC)c1c(-c2ccccc2)nnn1Cc1ccc(C)cc1` [Compound 17, Diethyl [1-(4-methylbenzyl)-4-phenyl-1,2,3-triazol-5-yl]phosphonate], the IC50 with B. subtilis-GFP (Bacillus subtilis) and in the series with E. coli-GFP (Escherichia coli) was > 30 µM in each case. For the same compound, the IC50 at 72 h in “in vitro [1]”, in “in vitro [2]” and in “in vitro [4]” was > 30 µM in each case.

In the case of “Dibutyl (1-isooctyl-4-phenyl-1,2,3-triazol-5-yl)phosphonate [Compound 26]”, the IC50 with B. subtilis-GFP was 29.6 ± 1 µM; in the series on E. coli-GFP it was > 30 µM; in series [6] it was > 30 µM; in [7] it was > 30 µM; in [5], 26.7 ± 1 µM.

As for `COc1cccc2c1C(=O)c1c(O)c3c(c(O)c1C2=O)C[C@@](O)(C(=O)CO)C[C@@H]3O[C@H]1C[C@H](N)[C@H](O)[C@H](C)O1` [Doxorubicin, reference compound], the IC50 at 72 h came out at 0.31 ± 0.24 µM in “in vitro [1]” and 5.65 ± 0.81 µM in “in vitro [2]”.

As for `CCCCCCCCn1nnc(-c2ccccc2)c1P(=O)(OCC)OCC` [Compound 24, Diethyl (1-octyl-4-phenyl-1,2,3-triazol-5-yl)phosphonate], the IC50 in the series with B. subtilis-GFP (Bacillus subtilis) and with E. coli-GFP (Escherichia coli) was > 30 µM in each case. In addition, the IC50 at 72 h in the series “in vitro [1]”, in the series “in vitro [2]” and in “in vitro [4]” was > 30 µM each time.

In the case of `CCCCCOP(=O)(OCCCCC)c1c(-c2ccccc2)nnn1Cc1ccccc1` [Compound 15, Dipentyl (1-benzyl-4-phenyl-1,2,3-triazol-5-yl)phosphonate], the IC50 in the series on B. subtilis-GFP (Bacillus subtilis) is 23.9 ± 1 µM; with E. coli-GFP (Escherichia coli), > 30 µM. The IC50 at 72 h was > 30 µM in “in vitro [1]” (setting [8]), 26.2 ± 1.1 µM in “in vitro [2]” (setting [9]) and 15.4 ± 1.2 µM in series [3].

Consider `CCCCOP(=O)(OCCCC)c1c(-c2ccccc2)nnn1Cc1ccc(C(F)(F)F)cc1` [Compound 22, Dibutyl [1-(4-trifluoromethyl)-4-phenyl-1,2,3-triazol-5-yl]phosphonate], for which the IC50 is > 30 µM in the series on B. subtilis-GFP (Bacillus subtilis), > 30 µM in the series on E. coli-GFP (Escherichia coli) and 9.7 ± 1.1 µM in [5]. Further, the IC50 at 72 h in the series “in vitro [1]” (setting [8]) is > 30 µM; in “in vitro [2]” (setting [9]), 23.1 ± 1.2 µM; in [3], ~10 µM.

`CCCCOP(=O)(OCCCC)c1c(-c2ccccc2)nnn1Cc1cccc(F)c1` [Compound 20, Dibutyl [1-(3-fluorobenzyl)-4-phenyl-1,2,3-triazol-5-yl]phosphonate]: the IC50 in the series on B. subtilis-GFP (Bacillus subtilis) and in the series with E. coli-GFP (Escherichia coli) was > 30 µM in each case. Further, the IC50 at 72 h in “in vitro [1]” (setting [8]) is > 30 µM; in the series “in vitro [2]” (setting [9]) it was > 30 µM; in series [3], 15.4 ± 1.2 µM.

With `CCCCCCCCn1nnc(-c2ccccc2)c1P(=O)(OC)OC` [Compound 23, Dimethyl (1-octyl-4-phenyl-1,2,3-triazol-5-yl)phosphonate], the IC50 in the series with B. subtilis-GFP (Bacillus subtilis) and with E. coli-GFP (Escherichia coli) was > 30 µM throughout. The IC50 at 72 h in “in vitro [1]”, in “in vitro [2]” and in “in vitro [4]” was > 30 µM in each case.

For `CCCCOP(=O)(OCCCC)c1c(-c2ccccc2)nnn1Cc1ccc(C)cc1` [Compound 18, Dibutyl [1-(4-methylbenzyl)-4-phenyl-1,2,3-triazol-5-yl]phosphonate], the IC50 in the series on B. subtilis-GFP (Bacillus subtilis) is 18.2 ± 1 µM; with E. coli-GFP (Escherichia coli) it was > 30 µM. The IC50 at 72 h (in the series “in vitro [1]” (setting [8]); in the series “in vitro [2]” (setting [9]); in [3]) was > 30 µM each time.

`COP(=O)(OC)c1c(-c2ccccc2)nnn1Cc1ccccc1` [Compound 11, Dimethyl (1-benzyl-4-phenyl-1,2,3-triazol-5-yl)phosphonate]: the IC50 with B. subtilis-GFP (Bacillus subtilis) and in the series on E. coli-GFP (Escherichia coli) was > 30 µM throughout. The concentration for half-maximal inhibition (IC50) at 72 h in “in vitro [1]”, in the series “in vitro [2]” and in the series “in vitro [4]” was > 30 µM throughout.

Turning to `CCCCCCCCn1nnc(-c2ccccc2)c1P(=O)(OCCCC)OCCCC` [Compound 25, Dibutyl (1-octyl-4-phenyl-1,2,3-triazol-5-yl)phosphonate], the IC50 with B. subtilis-GFP (Bacillus subtilis) and with E. coli-GFP (Escherichia coli) was > 30 µM throughout. Further, the IC50 at 72 h (in the series “in vitro [1]” (setting [8]); in the series “in vitro [2]” (setting [9]); in series [3]) was > 30 µM throughout.

Turning to `CNC(C)C1CCC(N)C(OC2C(N)CC(N)C(OC3OCC(C)(O)C(NC)C3O)C2O)O1` (stereo not drawn) [Gentamicin, reference compound], the results for the IC50 in the series with B. subtilis-GFP (Bacillus subtilis) and in the series with E. coli-GFP (Escherichia coli) were 0.49 ± 0.14 µM and 4.23 ± 0.99 µM, respectively.

Consider `CCCCOP(=O)(OCCCC)c1c(-c2ccccc2)nnn1Cc1ccccc1F` [Compound 19, Dibutyl [1-(2-fluorobenzyl)-4-phenyl-1,2,3-triazol-5-yl]phosphonate], for which the IC50 was 19.3 ± 1 µM in the series on B. subtilis-GFP (Bacillus subtilis) and > 30 µM with E. coli-GFP (Escherichia coli). Also, the IC50 at 72 h is > 30 µM in “in vitro [1]” (setting [8]), 27.5 ± 1.1 µM in “in vitro [2]” (setting [9]) and 11.7 ± 1.2 µM in [3].

With `C[C@H]1c2cccc(O)c2C(=O)C2=C(O)[C@]3(O)C(=O)C(C(N)=O)=C(O)[C@@H](N(C)C)[C@@H]3[C@@H](O)[C@@H]21` [Doxycycline, reference compound], the IC50 with B. subtilis-GFP (Bacillus subtilis) worked out at 0.04 ± 0.01 µM; in the series on E. coli-GFP (Escherichia coli) it was 0.1 ± 0.02 µM.

In the case of `CCCCOP(=O)(OCCCC)c1c(-c2ccccc2)nnn1Cc1ccccc1` [Compound 8, Dibutyl (1-benzyl-4-phenyl-1,2,3-triazol-5-yl)phosphonate], the IC50 in the series on B. subtilis-GFP (Bacillus subtilis) and in the series on E. coli-GFP (Escherichia coli) was > 30 µM throughout. Besides, the IC50 at 72 h in the series “in vitro [1]” (setting [8]) was > 30 µM; in “in vitro [2]” (setting [9]) it was 27.5 ± 1.4 µM; in series [3], > 30 µM.

Turning to `CCCOP(=O)(OCCC)c1c(-c2ccccc2)nnn1Cc1ccccc1` [Compound 13, Dipropyl (1-benzyl-4-phenyl-1,2,3-triazol-5-yl)phosphonate], the half-inhibitory concentration (IC50) with B. subtilis-GFP (Bacillus subtilis) was 29.3 ± 1.2 µM; in the series with E. coli-GFP (Escherichia coli) it was > 30 µM. Further, the results for the IC50 at 72 h (in the series “in vitro [1]” (setting [8]); in “in vitro [2]” (setting [9]); in series [3]) were > 30 µM, > 30 µM and 12.6 ± 1.7 µM, respectively.

With `CCCCOP(=O)(OCCCC)c1c(-c2ccccc2)nnn1Cc1ccc(F)cc1` [Compound 21, Dibutyl [1-(4-fluorobenzyl)-4-phenyl-1,2,3-triazol-5-yl]phosphonate], the IC50 is 23.2 ± 1.1 µM in the series with B. subtilis-GFP (Bacillus subtilis) and > 30 µM in the series with E. coli-GFP (Escherichia coli). The IC50 at 72 h in “in vitro [1]” (setting [8]) is > 30 µM; in the series “in vitro [2]” (setting [9]), > 30 µM; in series [3] it was 16.6 ± 1.3 µM.

The record behind these values is publication PMC7321403, “Synthesis and In Vitro Cytotoxicity and Antibacterial Activity of Novel 1,2,3-Triazol-5-yl-Phosphonates” (Molecules, 2020).
